# Results published in patent publication US20130315843A1, “COMPOSITION FOR REDUCTION OF TRPA1 AND TRPV1 SENSATIONS” (priority 2012, published 2013).
# Assay: Headspace GC reduction of 1-propanethiol by protectant (Michael Acceptor) compounds
# Settings: for Percent Thiol Reduction vs. Control: 0.1% SLS; for % Thiol Reduction: 0.1% sodium lauryl sulfate, 1% test compound, headspace
# [1] = 1 ppm 1-propanethiol, 0.01% test compound
# [2] = 1 ppm 1-propanethiol, 0.05% test compound
# [3] = 10 ppm 1-propanethiol, 0.01% test compound
# [4] = 10 ppm 1-propanethiol, 0.05% test compound
# Method: For EXAMPLES 11 and 12 a 0.1% sodium lauryl sulfate (SLS) aqueous solution was prepared to contain either 1 ppm or 10 ppm of 1-propanethiol. SLS solution was added to the sample and control solutions to assist in solubilization of the more hydrophobic compounds. Control solutions contained surfactant and 1-propanethiol, while sample solutions contained these components plus a protectant compound added at either 0.01% or 0.05%. 100 μL aliquots of control or test solutions were aliquotted into a 22 mL headspace vial, vortexed for 30 seconds, and incubated for 30 minutes at 60 C in an oven. After that period, 1 mL of head space was sampled and injected into an Agilent 7890 gas chromatograph equipped with a sulfur chemiluminescence detector (GC-SCD). Peak areas of the 1-propanethiol control sample (no protectant compound added) were established by triplicate injection of the control sample. The area of the propanethiol peak produced from samples containing selected protectant molecules were then determined and ratioed to the 1-propanethiol control peak area, subtracted from 1, and multiplied by 100 to calculate percent reduction of the thiol peak, thus indicating the effectiveness of each protectant at reducing the level of thiol.
# The samples in TABLE 17 were prepared by combining 1 ppm 1-propanethiol with 0.1% sodium lauryl sulfate with 1% of the test compounds. The volatile sulfurs were measured with headspace GC/MS using a SPEME column to capture the volatile sulfur.
# The samples in TABLE 18 were prepared by combining either 1 or 10 ppm 1-propanethiol with 0.1% sodium lauryl sulfate with either 0.01% or 0.05% of the test compounds.
Compound,Percent Thiol Reduction vs. Control [1],Percent Thiol Reduction vs. Control [2],Percent Thiol Reduction vs. Control [3],Percent Thiol Reduction vs. Control [4],% Thiol Reduction (1 ppm 1-propanethiol),"thiol reduction, comparison in words (10 ppm 1-propanethiol, compound 0.01%)"
O=C/C=C/c1ccccc1 [Cinnamic aldehyde],36.8%,52.4%,−10.0%,−5.7%,,
CCc1occc(=O)c1O [Ethyl maltol],,,,,−17.2%,
C/C=C/C(=O)C1C(C)C=CCC1(C)C (centres unmarked) [delta-Damascone],77.7%,82.3%,81.0%,81.2%,,
CC1=CC(=O)CC(C)(C)C1 [Isophorone],,,,,43.1%,
C/C=C/C(=O)C1C(C)C=CCC1(C)C (centres unmarked) [delta damascone],,,,,,higher activity at its lower concentration (0.01%) than any of the other michael acceptor's
